Here are results for 1 compound from patent EP2711366A1, “Cationic triphenylamine derivatives activable by visible and Infra Red light for inducing and imaging apoptosis in cancer cells” (Institut Curie, priority 2012, dated 2014).

Assay [1] concerns living MCF-7 cells. Put plainly: Cell death induced by two-photon excitation (multiphoton microscopy). Type of assay: cell-based. As to conditions: two-photon λex 860nm, irradiance 1.25W/cm^2. As to the method:
A similar set up was used for two-photon images except that the excitation source was a 80-MHz mode-locked Mai Tai® Ti:Sapphire tunable laser (720-920 nm, 100 fs laser pulse; Spectra Physics, Mountain View, California) tuned to 860 nm.
Living MCF-7 cells were treated with 2 µM of TP2Py for 2 hours, exposed to two-photon excitation and simultaneously observed by multiphoton microscopy [using- a pulsed IR laser source for excitation Mai Tai, Spectra Physics, λex = 860nm; irradiance, 1.25W/cm^2, emission slit setting: 560-720nm].

Assay [2] relates to living MCF-7 cells. Description: One-photon confocal fluorescence microscopy, photo-induced nuclear translocation and membrane blebbing. Type of assay: cell-based. As for the experimental part:
One-photon epifluorescence and confocal images were obtained using a SP2 confocal microscope (Leica MicroSystem) equipped with an incubation chamber (37°C, CO2 5%). Excitation and emission filters for epifluorescence were 450-490 nm and 515-700 nm, respectively. A continuous laser line (458 nm) was used for excitation in the confocal mode.
The photo-induced nuclear translocation and membrane blebbing were next assessed using confocal fluorescence microscopy [λexc = 458 nm; emission slit settings: 560-720nm and 530-690nm for TP2Py and TP3Bzim, respectively] under experimental conditions similar to those described in experiment 1 for epifluorescence experiments. The corresponding transmission images illustrating the concomitant membrane blebbing are shown below the confocal fluorescence images. Living MCF7 cells were incubated with 2µM TP3Bzim or TP2Py for 2 hours before observation. As shown in Fig. 5A (TP2Py) and in Fig. 5B (TP3BZim), the results obtained with confocal imaging were similar to those obtained with epifluorescence imaging (experiment 1), with however, some discrepancies in the time courses of event appearance, most likely due to the power of the excitation source which is different between epifluorescence and confocal experiments (see below). […] Based on both criteria (re-localization of the fluorescence signal and the formation of blebs), the deduced fluences were 22 and 40 J/cm^2 for TP2Py and TP3Bzim, respectively. […]
The TP2Py compound at a concentration of 2 µM was first incubated with living MCF-7 cells for 2 hours and then observed with confocal microscope with varying illumination power of the laser source [λ=458 nm; emission slit setting: 560-720 nm]. […] For each condition, the fluorescence intensity in ROIs corresponding to the nucleus was plotted as a function of time (the initial time value, t = 0, represents the first observation) (FIG.7C). Using integration time based on tmax values, light dose values, determined from experiments performed at irradiance of 5.6 or 30 mW/cm^2, were consistent (27.6 and 27 J/cm^2 respectively). These values are in accordance with the above-mentioned value for TP2Py (fluence, 22 J/cm^2 in Fig. 5).
Living MCF-7 cells were treated with varying concentrations of TP2Py for two hours (2µM; 0.2µM and 0.02µM) and observed with a confocal microscope [λexc = 458nm; irradiance 30mW/cm^2, emission slit setting: 560-720nm.] (FIG 8A: 2µM; FIG 8B: 0.2µM; FIGBC: 0.02µM).

Where [3] appears, read: 2µM, 2 hours, λexc 458 nm, irradiance 30 mW/cm^2.

In the case of `C[n+]1ccc(/C=C/c2ccc(N(c3ccccc3)c3ccc(/C=C/c4cc[n+](C)cc4)cc3)cc2)cc1` [TP2Py], the “start of re-localization into the nucleus after the first excitation” value in the assay with living MCF-7 cells [1] (2 µM, 2 hours) was 5 to 15 min. For the same compound, in the assay on living MCF-7 cells [1], the light dose entry is “≈ 300 J/cm^2”. For the same compound, the “time at which the first blebs appeared” value in the assay with living MCF-7 cells [2] (20nM, constant light excitation, transmission mode) was determined as 75 min. Moreover, in the assay on living MCF-7 cells [2] (0.2µM, irradiance 30 mW/cm^2), the light dose was determined as 306 J/cm^2 and the “tmax of nuclear re-localization” value is greater than 2 h. Also, the “deduced fluence (re-localization of the fluorescence signal and formation of blebs)” value in the assay on living MCF-7 cells [2] (2µM, 2 hours, confocal, λexc 458 nm (Fig. 5)) amounted to 22 J/cm^2. Further, in the assay on living MCF-7 cells [2] (setting [3]), the “lag period before increase of fluorescence emission intensity in the nucleus” value fell in the range of 2 to 4 min and the “time of maximum fluorescence emission intensity in the nucleus” value lay in the range of 8 to 10 min. For the same compound, in the assay with living MCF-7 cells [2] (2 µM, irradiance 5.6 mW/cm^2), the “light dose (integration time based on tmax)” value is 27.6 J/cm^2 and the “tstart of nuclear re-localization” value came to 50 min. In addition, in the assay with living MCF-7 cells [2] (2 µM, irradiance 30 mW/cm^2), the “light dose (integration time based on tmax)” value turned out to be 27 J/cm^2, the “tmax of nuclear re-localization” value turned out to be 0.25 h and the “tstart of nuclear re-localization” value turned out to be 4 min.
